Test system: thrombus-induced mouse model
Assay: In-vivo antithrombotic test, Rota-rod, collagen/epinephrine thrombus-induced mouse model
Parameters: species or system ICR mice
Conditions: thrombus induced 90 min after drug, Rota-rod 24 rpm after 15 min
Description: As for the experimental animals, 5-week-old female ICR mice provided by YoungBio were stabilized in an animal laboratory at a temperature of 24±1° C., a humidity of 55±5% in a 12-hour day-night cycle for 1 week and used in the experiments.
The change in behavioral capacity was evaluated for the prepared thrombus-induced mouse model using Rota-rod, and the antithrombotic effect of the Angelica gigas Nakai extract was evaluated. The thrombus-induced mouse model was prepared as follows. A 6-week-old ICR mouse (about 20 to 25 g) stabilized as an experimental mouse was prepared, and subjected to Rota-rod training, and the reference value was created three times, and the rotation speed was set to 24 rpm, and objects withstanding without falling at a rotation speed of 300 or more were selected. […] After 15 minutes, Rota-rod testing was repeated 3 times (rotation speed: 24 rpm), and the difference in athletic performance was analyzed by the following Equation: Protection rate (%)=[(Total number of individuals−Number of killed or paralyzed individuals)/Total number of individuals]×100
Number of killed or paralyzed individuals: The number of individuals who fell at a rotation speed of 24 rpm or less in Rota-rod testing at a rotation speed of 150 or less)

SMILES	Number of killed or paralyzed individuals / Number of total individuals (dose 10 mg/kg)	Protection (%) (dose 10 mg/kg)	Number of killed or paralyzed individuals / Number of total individuals (dose 100 mg/kg)	Protection (%) (dose 100 mg/kg)
CC1(C)Oc2cc3oc(=O)ccc3cc2C[C@@H]1O [Decursinol, decursinol]	12/19	36.8%	–	–
CC(C)=CC(=O)O[C@H]1Cc2cc3ccc(=O)oc3cc2OC1(C)C [Decursin, decursin]	11/18	38.9%	–	–
CC(=O)Oc1ccccc1C(=O)O [ASA (Aspirin), acetylsalicylic acid]	–	–	11/20	45%

Reference: US11446347B2, “Antithrombotic composition comprising Angelica gigas Nakai extract” (Astrogenesis Co., Ltd., priority 2018, dated 2022)
